From patent US20240408112A1, “METHOD FOR PREVENTING OR TREATING PULMONARY ARTERIAL HYPERTENSION BY USING 7-DEHYDROCHOLESTEROLS OR SALTS, OXIDES, METABOLITES, OR DERIVATIVES THEREOF” (EXCELSIOR PHARMATECH LABS., priority 2023, published 2024)

Experiments:
[1] = system: human pulmonary artery smooth muscle cells (hPASMC); test: BrdU cell proliferation assay, 10% FBS, hPASMC; format: cell-based
Experimental: (§1) BrdU (5-bromo-2-deoxyuridine) cell proliferation assay (BrdU assay)
(§2) A 48-well plate was used, and 1.5×10^4 cells were implanted in each well. After 24 hours, the medium was changed to serum-free culture medium and synchronized for 24 hours. A 2-fold concentration of the compound in serum-free culture medium is prepared and the cells were pretreated for 1 hour. Then, the same volume of culture medium containing 20% fetal bovine serum (FBS) was added to dilute the compound. The final concentration was 10% FBS culture medium and 1 times the concentration of the compound. In the experimental group that added TGF-β, the same volume of TGF-β culture medium containing 10 ng/mL was added, with a final concentration of 5 ng/mL TGF-β and 1 times the concentration of the compound, and in the experimental group added with TGF-β, the entire process was conducted in culture medium containing 0.1% serum. Then, BrdU reagent was added about 6 hours later, and the cells were collected the next day for enzyme-linked immunosorbent assay (ELISA) analysis, the compound treatment time was about 24 hours, and the BrdU treatment time was about 18 hours.
(§3) Five compounds to be tested were screened by cell survival assay (MTT assay) and BrdU (5-bromo-2-deoxyuridine) cell proliferation assay, and the information of these compounds was listed in Table 1 below. Tables 2 and 3 respectively listed the growth inhibitions of on human pulmonary artery endothelial cells (hPAEC), human pulmonary artery smooth muscle cells (hPASMC), normal rat pulmonary artery smooth muscle cells (rPASMC, as the control group, represented by “CON”), and rat pulmonary artery smooth muscle cells (represented by “MCT”), by the five compounds to be tested under the conditions of 10% FBS, 0.1% FBS and 100 pM TGF-β.

[2] = system: PAH rat pulmonary artery smooth muscle cells (rPASMC MCT); test: BrdU cell proliferation assay, 10% FBS, rPASMC MCT; format: cell-based
Experimental: as §1, §2, §3

[3] = system: human pulmonary artery smooth muscle cells (hPASMC); test: BrdU cell proliferation assay, 0.1% FBS, 100 pM TGF-β, hPASMC; format: cell-based; conditions: hPASMC, 100 pM TGF-β, 0.1% FBS
Experimental: as §1, §2, §3

[4] = system: normal rat pulmonary artery smooth muscle cells (rPASMC CON); test: BrdU cell proliferation assay, 0.1% FBS, 100 pM TGF-β, rPASMC CON; format: cell-based; conditions: 100 pM TGF-β
Experimental: as §1
as §2, with “with a final concentration of 5 ng/mL TGF-β and 1 times the concentration” left out
Five compounds to be tested were screened by cell survival assay (MTT assay) and BrdU (5-bromo-2-deoxyuridine) cell proliferation assay, and the information of these compounds was listed in Table 1 below.

[5] = system: PAH rat pulmonary artery smooth muscle cells (rPASMC MCT); test: BrdU cell proliferation assay, 0.1% FBS, 100 pM TGF-β, rPASMC MCT; format: cell-based; conditions: 100 pM TGF-β
Experimental: as §1, §2, §3

[6] = system: monocrotaline induced pulmonary hypertension rat; test: Monocrotaline-induced pulmonary arterial hypertension rat model, Example 2 (7-DHC, 042); format: in vivo; conditions: for Arterial gas analysis pH value, PaO2 and PaCO2, in words: between groups CON, MCT and treated; for Base excess (BE) value: MCT group −5.5, normal −2 to +2
Source text: Pulmonary arterial hypertension animal experimental model
The present disclosure utilizes injection of monocrotaline to induce symptoms of pulmonary arterial hypertension in rats to establish a pulmonary arterial hypertension animal experimental model suitable for screening test drugs.
The diagnostic method of clinical pulmonary arterial hypertension standards is right heart catheterization, which is defined as mean pulmonary arterial pressure (mPAP) greater than or equal to 20 mmHg. The diagnostic criteria for pulmonary arterial hypertension, in addition to an increase in mean pulmonary arterial pressure, need to be combined with pulmonary vascular resistance (PVR) greater than 3 Wood unit. The right ventricle pressure (RVP) and systemic mean blood pressure (mbp) in rats with pulmonary arterial hypertension were measured by Millar Model PCU200 pressure system, and the heart rate (HR) was also monitored at the same time. After measuring the hemodynamic data, the arterial blood was extracted from the carotid artery of the pulmonary arterial hypertension rat, and the Abbott blood oximeter (i-STAT) combined with Abbott's special chip cartridge (i-STAT Cartridge G3+) was used to measure arterial gas analysis data such as pH, PaO2, PaCO2, HCO3 and base excess (BE) value in quantitative whole blood samples. The normal pH value is between 7.35 and 7.45, and the pH value indicates whether the experimental animal has the condition of acidemia, alkalemia, acidosis or alkalosis. The normal value of PaO2 is between 80 and 100 mmHg, which reflects the effectiveness of gas exchange (ventilation/perfusion). The normal value of PaCO2 is between 35 and 45 (such as 38 and 42) mmHg, which can evaluate the effectiveness of alveolar ventilation. The acid produced by food, tissue decomposition, inflammation and hypoxia rely on the lungs to excrete volatile acid CO2 (short-term) and the bicarbonate (HCO3^−) produced by the kidneys (long-term) to neutralize non-volatile acids, while the normal value of bicarbonate hydrogen radical (HCO3^−) is between 22 and 26 meq/L. BE is the base excess value, its normal value ranges from −2 to +2, the negative value represents the degree of alkali ion deficiency in the blood, a negative BE value (−) that is too high indicates metabolic acidosis, and a positive value (+) that is too high is metabolic alkalosis. At the end of the experiment, the rats were sacrificed and their hearts were removed and the left and right ventricles were separated and weighed (RV)/(S)+(LV).
Monocrotaline (MCT) was utilized to induce pulmonary hypertension rat animal model, the TGF-β receptor inhibitor 7-DHC (039) and compound No. 042 were tested via intraperitoneal (IP) administration, and the physiological parameters of the animals were collected, wherein includes measuring right ventricle pressure, systemic arterial pressure, heartbeat and right ventricle hypertrophy, as well as observing and analyzing the pulmonary artery thickening and blood oxygenation levels through pathological sections of lung tissue. Specifically, 7-DHC (039) was divided into two groups with a dosage of 10 mg/kg or 20 mg/kg, the dosage of group 042 was 50 mg/kg, each dosage group has 3 rats (n=3), while the control group (CON) and the pulmonary arterial hypertension rat group (MCT) had 6 rats (n=6) respectively.

SMILES: CC(C)CCCC(C)C1CCC2C3=CC=C4CC(O)CCC4(C)C3CCC21C (stereo not drawn) [Code 039, 7-DHC]
- EC50 ([1]; Homo sapiens, read-out: EC50 (concentration for 50% of maximal effect)): 53 µM
- Inhibition of cell growth (in words) ([1]; hPASMC, 10% FBS, FIG. 2): inhibition of cell growth can also be observed
- EC50 ([2]; Rattus norvegicus, read-out: EC50 (concentration for 50% of maximal effect)): 37 µM
- Inhibition of cell growth (in words) ([2]; rPASMC MCT4, 10% FBS, FIG. 2): significant inhibitory effects
- EC50 ([3]; Homo sapiens, read-out: EC50): 24 µM
- Inhibition of cell growth (in words) ([3]; 25 μM, FIG. 3): inhibition of cell growth
- EC50 ([4]; Rattus norvegicus, CON (normal rPASMC), 0.1% FBS, read-out: EC50): 30 µM
- Inhibition of cell growth (in words) ([4]; rPASMC CON3, 0.1% FBS, 25 μM, FIG. 3): significant inhibitory effects
- EC50 ([5]; Rattus norvegicus, MCT (PAH rPASMC), 0.1% FBS, read-out: EC50): 20 µM
- Inhibition of cell growth (in words) ([5]; rPASMC MCT2, 0.1% FBS, 25 μM, FIG. 3): significant inhibitory effects
- Arterial gas analysis pH value, PaO2 and PaCO2, in words ([6]; 10 mg/kg IP): did not show any significant differences
- Thickness of the pulmonary artery blood vessels (medial wall thickness), in words ([6]; 10 mg/kg IP, p<0.001, vs MCT rats (exceeded 55%)): significantly reduced
- Base excess (BE) value ([6]; 10 mg/kg IP): −2
- Animal survival status ([6]; 20 mg/kg IP, 23rd day after monocrotaline induction): had died
- Arterial gas analysis pH value, PaO2 and PaCO2, in words ([6]; 20 mg/kg IP): did not show any significant differences
- Base excess (BE) value ([6]; 20 mg/kg IP): 0
- Systemic blood pressure and heartbeat, in words ([6]; 10 or 20 mg/kg IP): did not reduce
- Right ventricle pressure (RVP), in words ([6]; 10 or 20 mg/kg IP, vs MCT rats (28 mmHg)): can be reduced
